Patent publication US20220144847A1, “HETEROCYCLIC COMPOUND, PHARMACEUTICAL COMPOSITION COMPRISING SAME, PREPARATION METHOD THEREFOR, AND USE THEREOF” (Sichuan Kelun-Biotech Biopharmaceutical Co., Ltd., priority 2019, published 2022)
Read-outs that look alike come from different tables or passages of the source.

Legend:
Type in all cases: biochemical
RET-M918T = RET-M918T (Homo sapiens, UniProt P07949, M918T); experiment: RET inhibition experiment (HTRF KinEASE-TK kit), mutant RET-M918T; details: for inhibition at 0.1 µM: read-out: Inhibition rate on RET-M918T
Description: (§1) Experimental method: […] After incubation at room temperature for 40 min, TK antibody-cryptate and streptavidin-XL665 were added, and the test was performed after incubation at room temperature for 45 min. With the solvent group (DMSO) as the negative control and the buffer group (without RET enzyme) as the blank control, the relative inhibitory activity percentages (i.e., inhibition rates) of different concentrations of the compounds were computed as per the following formula: […] The relative inhibitory activity percentages of different concentrations of the compounds were plotted with respect to the compound concentrations, and the curve was fitted according to a four-parameter model to compute the IC50 value as per the following formula: y=min+(max-min)/(1+(x/IC50)^(-Hillslope)) where y is the relative inhibitory activity percentage, max is the maximum value of the fitted curve, min is the minimum value of the fitted curve, x is the logarithmic concentration of the compound, and Hillslope is the slope of the curve.

VEGFR2 = VEGFR2 (Homo sapiens, UniProt P35968); experiment: VEGFR2 inhibition experiment (HTRF KinEASE-TK kit); details: read-out: Inhibition rate on VEGFR2
Summary of the method: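 HTRF KinEASE-TK format: enzyme and compound were preincubated 30 min at room temperature, then substrate and ATP added for 40 min, followed by cryptate antibody/streptavidin-XL665 detection for 45 min. Inhibition was normalised to DMSO and no-enzyme controls; IC50 from a four-parameter fit.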

RET-V804M = RET-V804M (Homo sapiens, UniProt P07949, V804M); experiment: RET inhibition experiment (HTRF KinEASE-TK kit), mutant RET-V804M; details: read-out: Inhibition rate on RET-V804M; for inhibition at 0.01 µM: 10 nM (Table 2)
Summary of the method: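 Enzyme was pre-incubated with compound at room temperature for 30 min, then substrate and ATP were added for a 40 min reaction. HTRF signal was read after 45 min with TK antibody-cryptate and streptavidin-XL665. IC50 came from a four-parameter fit of percent inhibition against DMSO and no-enzyme controls.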

RET-CCDC6 = molecular target: T1, RET-CCDC6 (Homo sapiens, UniProt P07949); experiment: RET inhibition experiment (HTRF KinEASE-TK kit), fusion-type RET enzyme; details: read-out: The IC50 (nM) for inhibiting RET-CCDC6
T1 construct: CCDC6 fusion partner (Q16204 for human); the other entry of the earlier key: CCDC6 (Q16204, Coiled-coil domain-containing protein 6)
T1 sequence (P07949 with tags, fused parts or gaps): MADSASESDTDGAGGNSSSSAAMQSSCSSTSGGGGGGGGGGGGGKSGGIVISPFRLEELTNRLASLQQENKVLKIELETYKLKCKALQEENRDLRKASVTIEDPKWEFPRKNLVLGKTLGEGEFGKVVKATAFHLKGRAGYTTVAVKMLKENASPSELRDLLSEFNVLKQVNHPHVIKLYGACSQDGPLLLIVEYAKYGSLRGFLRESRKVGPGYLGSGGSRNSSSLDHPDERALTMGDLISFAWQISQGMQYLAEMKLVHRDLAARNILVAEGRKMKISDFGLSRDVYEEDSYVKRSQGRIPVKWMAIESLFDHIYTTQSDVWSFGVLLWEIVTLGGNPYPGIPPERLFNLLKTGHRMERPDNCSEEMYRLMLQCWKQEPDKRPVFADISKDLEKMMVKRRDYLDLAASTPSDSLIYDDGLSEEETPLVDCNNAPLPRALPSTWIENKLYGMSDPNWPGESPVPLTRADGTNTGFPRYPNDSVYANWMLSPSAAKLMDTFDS
Description: as §1

[1] = compound concentration 100 nM (Table 1)

Chain of RET-M918T (P07949 29-1114 M918T): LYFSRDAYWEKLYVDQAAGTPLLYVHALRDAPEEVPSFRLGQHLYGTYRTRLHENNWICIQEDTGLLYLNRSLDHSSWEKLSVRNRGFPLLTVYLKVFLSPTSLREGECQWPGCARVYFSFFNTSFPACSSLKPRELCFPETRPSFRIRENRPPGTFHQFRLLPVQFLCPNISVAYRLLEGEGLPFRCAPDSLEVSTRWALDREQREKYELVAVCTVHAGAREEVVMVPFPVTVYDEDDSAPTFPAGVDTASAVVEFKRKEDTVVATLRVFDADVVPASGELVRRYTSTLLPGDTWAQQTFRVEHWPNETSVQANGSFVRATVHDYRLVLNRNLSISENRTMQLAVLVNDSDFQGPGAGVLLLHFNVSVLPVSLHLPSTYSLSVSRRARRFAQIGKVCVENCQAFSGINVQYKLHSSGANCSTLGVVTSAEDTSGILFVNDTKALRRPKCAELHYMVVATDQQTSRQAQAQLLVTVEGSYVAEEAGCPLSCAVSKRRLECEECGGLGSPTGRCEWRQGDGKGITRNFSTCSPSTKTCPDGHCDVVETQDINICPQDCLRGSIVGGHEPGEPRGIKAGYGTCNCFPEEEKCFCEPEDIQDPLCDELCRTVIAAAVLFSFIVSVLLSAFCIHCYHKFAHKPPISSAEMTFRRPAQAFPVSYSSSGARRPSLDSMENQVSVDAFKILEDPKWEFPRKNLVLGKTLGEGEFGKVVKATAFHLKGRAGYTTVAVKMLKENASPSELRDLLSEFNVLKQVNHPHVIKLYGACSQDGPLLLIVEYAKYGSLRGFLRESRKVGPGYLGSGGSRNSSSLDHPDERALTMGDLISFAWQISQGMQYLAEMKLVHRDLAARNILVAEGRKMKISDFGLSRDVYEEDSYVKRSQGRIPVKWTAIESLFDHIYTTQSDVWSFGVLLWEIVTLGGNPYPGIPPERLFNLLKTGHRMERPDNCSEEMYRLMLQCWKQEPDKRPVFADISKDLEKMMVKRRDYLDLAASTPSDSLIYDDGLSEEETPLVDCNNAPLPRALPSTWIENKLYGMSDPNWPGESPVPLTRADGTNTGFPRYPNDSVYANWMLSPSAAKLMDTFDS
Chain of RET-V804M (P07949 29-1114 V804M): as the sequence (P07949 29-1114 M918T) above, with V776M, T890M counted along it
Chain of VEGFR2 (P35968 20-1356, species assumed): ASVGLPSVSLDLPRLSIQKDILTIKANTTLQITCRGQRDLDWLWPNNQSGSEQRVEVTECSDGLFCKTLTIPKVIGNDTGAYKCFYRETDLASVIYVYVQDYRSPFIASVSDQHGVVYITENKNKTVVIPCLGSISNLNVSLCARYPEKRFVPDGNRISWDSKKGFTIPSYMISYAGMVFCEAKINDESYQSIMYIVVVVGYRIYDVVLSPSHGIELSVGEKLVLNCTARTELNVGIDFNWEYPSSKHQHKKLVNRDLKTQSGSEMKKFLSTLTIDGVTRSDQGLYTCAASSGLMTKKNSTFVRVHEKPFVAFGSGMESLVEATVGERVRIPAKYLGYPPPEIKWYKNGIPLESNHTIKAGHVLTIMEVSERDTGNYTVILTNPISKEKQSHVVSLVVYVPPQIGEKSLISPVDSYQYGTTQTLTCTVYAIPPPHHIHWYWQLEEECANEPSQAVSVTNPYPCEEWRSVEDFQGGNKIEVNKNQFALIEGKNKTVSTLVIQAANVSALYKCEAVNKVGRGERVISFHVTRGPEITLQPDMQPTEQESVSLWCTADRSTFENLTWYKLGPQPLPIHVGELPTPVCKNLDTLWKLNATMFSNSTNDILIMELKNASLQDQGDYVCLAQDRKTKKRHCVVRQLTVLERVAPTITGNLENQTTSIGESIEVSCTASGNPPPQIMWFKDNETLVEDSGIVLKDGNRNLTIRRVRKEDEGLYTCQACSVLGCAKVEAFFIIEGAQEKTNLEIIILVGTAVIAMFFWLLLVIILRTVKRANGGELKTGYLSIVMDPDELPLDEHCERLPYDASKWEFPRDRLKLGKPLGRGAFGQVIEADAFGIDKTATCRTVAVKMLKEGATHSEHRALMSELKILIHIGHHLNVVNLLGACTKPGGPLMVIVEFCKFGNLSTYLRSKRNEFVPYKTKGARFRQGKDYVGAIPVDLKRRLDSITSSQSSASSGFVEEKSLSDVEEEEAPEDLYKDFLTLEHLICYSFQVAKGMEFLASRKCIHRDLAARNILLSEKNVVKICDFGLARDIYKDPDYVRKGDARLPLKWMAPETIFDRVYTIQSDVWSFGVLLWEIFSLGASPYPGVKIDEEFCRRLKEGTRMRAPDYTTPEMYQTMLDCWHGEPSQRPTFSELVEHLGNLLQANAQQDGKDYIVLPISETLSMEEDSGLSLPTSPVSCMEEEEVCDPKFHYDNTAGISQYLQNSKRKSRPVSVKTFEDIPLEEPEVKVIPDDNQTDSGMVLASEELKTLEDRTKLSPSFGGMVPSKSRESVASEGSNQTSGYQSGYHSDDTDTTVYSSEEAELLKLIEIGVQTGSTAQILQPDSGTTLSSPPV

Row | SMILES | inhibition at 0.1 µM (RET-M918T; [1]) | inhibition at 0.1 µM (VEGFR2; 100 nM) | inhibition at 0.01 µM (RET-V804M) | inhibition at 0.1 µM (RET-M918T) | inhibition at 0.1 µM (RET-V804M) | inhibition at 0.1 µM (VEGFR2) | other results
1 | COc1ccc(CN2C3CC2CN(c2ccc(-c4nc(C)cc(Nc5cc(C)[nH]n5)n4)cn2)C3)cn1 [Compound 4, 2-(6-(6-((6-methoxypyridin-3-yl)methyl)-3,6-diazabicyclo[3.1.1]heptan-3-yl)pyridin-3-yl)-6-methyl-N-(5-methyl-1H-pyrazol-3-yl)pyrimidin-4-amine] | 69% |  |  |  |  |  | inhibition at 1 µM (VEGFR2; 1000 nM): 52%
2 | Cc1cc(Nc2cc(C)[nH]n2)nc(-c2ccc(N3CC4CC(C3)N4Cc3ccc(Cl)nc3)nc2)n1 [Compound 3, 2-(6-(6-((6-chloropyridin-3-yl)methyl)-3,6-diazabicyclo[3.1.1]heptan-3-yl)pyridin-3-yl)-6-methyl-N-(5-methyl-1H-pyrazol-3-yl)pyrimidin-4-amine] | 34% | 14% |  |  |  |  | inhibition at 0.1 µM (RET-V804M; [1]): 86%
3 | Cc1cc(Nc2cc(C)[nH]n2)nc(-c2ccc(N3CC4CC(C3)N4Cc3ccc(Cl)cn3)nc2)n1 [Compound 69, 2-(6-(6-((5-chloropyridin-2-yl)methyl)-3,6-diazabicyclo[3.1.1]heptan-3-yl)pyridin-3-yl)-6-methyl-N-(5-methyl-1H-pyrazol-3-yl)pyrimidin-4-amine] |  | 2% | 56% |  |  |  | IC50 (RET-M918T; read-out: The IC50 (nM) for inhibiting the enzyme RET-M918T): 8.6 ± 1.46 nM; IC50 (RET-CCDC6): 11 ± 9.65 nM
4 | COc1ccc(CN2C3CC2CN(c2ccc(-c4nc(C)cc(Nc5cc(C)[nH]n5)n4)cn2)C3)cc1 [Compound 2, 2-(6-(6-(4-methoxybenzyl)-3,6-diazabicyclo[3.1.1]heptan-3-yl)pyridin-3-yl)-6-methyl-N-(5-methyl-1H-pyrazol-3-yl)pyrimidin-4-amine] |  |  |  | 51% | 93% | 29% | 
5 | Cc1cc(Nc2cc(C)[nH]n2)nc(-c2ccc(N3CC4CC(C3)N4Cc3ccccc3)nc2)n1 [Compound 1, 2-(6-(6-benzyl-3,6-diazabicyclo[3.1.1]heptan-3-yl)pyridin-3-yl)-6-methyl-N-(5-methyl-1H-pyrazol-3-yl)pyrimidin-4-amine] |  |  |  | 33% | 86% | 38% | 
6 | Cc1cc(Nc2cc(C)[nH]n2)nc(-c2ccc(N3CC4CC(C3)N4Cc3ccc(-c4cnn(C(C)C)c4)nc3)nc2)n1 [Compound 135, 2-(6-(6-((6-(1-isopropyl-1H-pyrazol-4-yl)pyridin-3-yl)methyl)-3,6-diazabicyclo[3.1.1]heptan-3-yl)pyridin-3-yl)-6-methyl-N-(5-methyl-1H-pyrazol-3-yl)pyrimidin-4-amine] |  | 34% | 65% |  |  |  | 
